# Reference: patent US20250170088A1, “METHOD AND COMPOSITION FOR IMPROVING INTESTINAL MICROFLORA” (NANJING NUTRABUILDING BIO-TECH CO., LTD., priority 2022, published 2025)
# Assays:
# Assay type in all cases: in vivo
# Conditions in all cases: obese mice induced by high-fat diet, 200 mg tributyrin daily, 8 weeks
# [1] = system: Akkermansia muciniphila; assay: 16s rRNA sequencing of fecal samples, relative abundance change of Akkermansia muciniphila
# [2] = system: Lactobacillus; assay: 16s rRNA sequencing of fecal samples, relative abundance change of Lactobacillus
# [3] = system: Streptococcus gordonii; assay: 16s rRNA sequencing of fecal samples, level of Streptococcus gordonii
# [4] = system: Klebsiella; assay: 16s rRNA sequencing of fecal samples, relative abundance change of Klebsiella
# [5] = system: Megamonas; assay: 16s rRNA sequencing of fecal samples, relative abundance change of Megamonas
structure (smiles),measurement,setting,value
"CCCC(=O)OCC(COC(=O)CCC)OC(=O)CCC [tributyrin, Tributyrin]",increase of the level of Akkermansia muciniphila,[1],119%
same,increase of the level of Lactobacillus,[2],101%
same,decrease of the level of Streptococcus gordonii,[3],about 80%
same,decrease of the level of Klebsiella,[4],67%
same,decrease of the level of Megamonas,[5],91%
